{"source": "patent US11992497B2", "about": "(priority 2021, dated 2024)", "key": {"[1]": {"test_system": "SW620", "assay": "GI50 by MTS assay", "assay_type": "cell-based", "settings": "Homo sapiens, SW-620", "description": "For MTS assay, the compounds have been tested at 8 concentrations on 4 colon cancer cell lines for 48 hours. The compounds, concentrations and colon cancer cell line panel tested are the following: • CBG: 0 μM, 1.25 μM, 2.5 μM, 5 μM, 10 μM, 20 μM, 40 μM, and 80 μM. • Compound 1: 0 μM, 1.25 μM, 2.5 μM, 5 μM, 10 μM, 20 μM, 40 μM, and 80 μM. • Compound 2: 0 μM, 1.25 μM, 2.5 μM, 5 μM, 10 μM, 20 μM, 40 μM, and 80 μM. • Colon cancer cell line panel: SW620, HCT15, HT29, HCTl16\nFour colon cancer cell lines of SW620, HCT15, HT29, and HCT116 were included in the colon cancer cell line panel.\nCBG, compound 1 and compound 2 were dissolved in DMSO at a concentration of 10 mM and stored at −20° C.\nEvaluation of DM compounds treatment-induced growth inhibition was performed to determine the GI50 of four colon cancer cell lines with MTS assay or clonogenic assay. Each experiment was repeated in triplicate. In GraphPad Prism, data were log-transformed and fit with a nonlinear curve to calculate the GI50.\nMTS assay. cells were plated at 96 well plates at a density of 1,000 cells per well. After 24 hours, cells were treated with DM compounds at increasing concentrations or DMSO vehicle and incubated for 48 hours. 20 μl of MTS reagent (Promega) was then added and incubated for 2 hours. The absorbance was measured with a microplate reader at 490 nm. Each experiment was repeated in triplicate. In GraphPad Prism, data were log-transformed and fit with a nonlinear curve to calculate the GI50."}, "[2]": {"test_system": "indomethacin induced intestinal injury", "assay": "Indomethacin-induced Crohn's disease in rats", "assay_type": "in vivo", "settings": "for small intestine weight compared to vehicle: all three treatment groups (50, 200, 800 mg/kg PO, days 0-3); for body weight change (prevention of weight loss): all treatment groups (50, 200, 800 mg/kg PO, days 0-3), vs dexamethasone (Compound 2: also vehicle)", "description": "The objective of this study was to determine the efficacy of Compound 1 and Compound 2 in a model of Crohn's disease (indomethacin induced intestinal injury) in rats.\nThe study design was identical for Compound 1 and Compound 2. On study day −3, rats were weighed and distributed into treatment groups based on body weight.\nOn study day 0, treatment was initiated and continue as indicated in the Study Design Tables below. Groups 2-6 received a subcutaneous injection of indomethacin (9 mg/kg, 1 ml/kg) in 5% sodium bicarbonate (Sterile Water). On study day 1, Groups 2-6 received a second subcutaneous injection of indomethacin (8 mg/kg, 1 ml/kg) in 5% sodium bicarbonate (Sterile Water). Live phase sample & data collection specifics are outlined below. On study day 4, animals will be euthanized, a section of the small intestine will be removed and weighed. Further necropsy sample and data collection is specified below. Overall efficacy of test articles will be based on body weight, small intestine weight (10 cm), small intestine gross score, and histopathology\nAt necropsy, the small intestines were evaluated visually and given a gross score according to the following criteria: ⋅0=Normal. 0.5=Very Minimal thickening, multifocal in area at risk. 1=Minimal thickening, fairly diffuse in area at risk. 2=Mild to moderate small intestinal/mesenteric thickening throughout area at risk. 3=Moderate thickening with 1 or more definite adhesions that would be easy to separate. 4=Marked thickening with numerous hard to separate adhesions. 5=Severe intestinal lesion resulting in death.\nPreserved 9-cm sections of small intestine were trimmed into 6 transverse sections collected at approximately equal intervals along the […] of the intestine, without bias toward lesion presence or absence. These trimmed sections were processed through graded alcohols and a clearing agent, infiltrated and embedded in paraffin, sectioned, and stained with hematoxylin and eosin (H&E).\nSmall intestine sections from all animals were examined microscopically by a board-certified veterinary pathologist, and observations were entered into a computer-assisted data retrieval system. Cross sections of small intestine were scored for inflammation and necrosis using the following criteria:\nThe area at risk for development of this lesion is generally approximately 30% of the total area of a cross section of small intestine where the mesentery attaches.\nInflammation is localized to the mesentery and intestinal area at risk for necrosis with slight extension on either side of it. […] In this case, inflammation is scored based on overall severity ranging from 0.5 (very minimal) to 5 (severe) without regard for the extent of necrosis. The mean score for necrosis and inflammation was calculated for each animal and these mean scores were then summed to arrive at a total score. Each section also has a measurement of total width of mucosal necrosis."}, "[3]": {"biological_target": "T1, UGT1A4 (Homo sapiens, UniProt P22310)", "T1 construct": "purchased BD Biosciences", "T1 sequence (P22310 29-534)": "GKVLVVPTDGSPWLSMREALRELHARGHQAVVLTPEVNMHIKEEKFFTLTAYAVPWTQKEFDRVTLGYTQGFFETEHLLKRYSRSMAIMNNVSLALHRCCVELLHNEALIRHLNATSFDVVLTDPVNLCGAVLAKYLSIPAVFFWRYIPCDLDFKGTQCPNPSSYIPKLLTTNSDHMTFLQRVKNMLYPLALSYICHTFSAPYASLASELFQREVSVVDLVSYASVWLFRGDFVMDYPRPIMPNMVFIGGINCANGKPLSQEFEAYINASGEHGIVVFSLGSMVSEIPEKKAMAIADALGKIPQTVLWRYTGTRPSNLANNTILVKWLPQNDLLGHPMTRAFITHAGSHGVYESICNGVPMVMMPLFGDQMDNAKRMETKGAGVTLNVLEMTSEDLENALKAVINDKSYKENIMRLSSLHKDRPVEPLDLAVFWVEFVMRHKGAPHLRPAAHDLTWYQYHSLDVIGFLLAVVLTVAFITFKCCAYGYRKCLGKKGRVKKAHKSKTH", "assay": "UGT reaction phenotyping, recombinant Supersomes", "assay_type": "in vitro ADME", "settings": "human, recombinant UGT1A4 Supersomes, pH 7.4, Test Conc. 1 μM; for microsomal CLint at 1 µM: read-out: Recombinant UGT CLINT Clearance; for half-life at 1 µM: read-out: Recombinant UGT Half Life T1/2", "description": "Experimental Summary: UGT Reaction Phenotyping (7 Isoforms)."}, "[4]": {"settings": "MTS assay, SW620, 48 hours, replicate N1, read-out: GI50 N1"}, "[5]": {"settings": "MTS assay, SW620, 48 hours, replicate N2, read-out: GI50 N2"}, "[6]": {"settings": "MTS assay, SW620, 48 hours, replicate N3, read-out: GI50 N3"}, "[7]": {"settings": "SW620 cells, 48 hours, read-out: GI50 (MTS assay)"}, "[8]": {"settings": "MTS assay, SW620, 48 hours, average of N1-N3, read-out: GI50 AVG"}, "[9]": {"settings": "Compound 1 Group 5 (200 mg/kg PO)"}, "[10]": {"settings": "Compound 1 Groups 4 and 5 (50, 200 mg/kg PO)"}}, "note": "Like-named read-outs stand apart in the source and are kept apart here."}
{"compound": "CCCCCc1cc(OC)c(C/C=C(\\C)CCC=C(C)C)c(OC)c1", "note": "[Compound 2, (E)-2-(3,7-dimethylocta-2,6-dien-1-yl)-1,3-dimethoxy-5-pentylbenzene]", "values": [{"measurement": "GI50", "setting": "[1]; [4]", "value": "> 80", "unit": "µM"}, {"measurement": "GI50", "setting": "[1]; [5]", "value": "> 80", "unit": "µM"}, {"measurement": "GI50", "setting": "[1]; [6]", "value": "> 80", "unit": "µM"}, {"measurement": "GI50", "setting": "[1]; [7]", "value": "> 80", "unit": "µM"}, {"measurement": "reduction of necrosis width, of vehicle", "setting": "[2]; Compound 2 Group 5", "value": 99, "unit": "%"}, {"measurement": "histopathology scores vs vehicle and dexamethasone", "setting": "[2]; Compound 2 Group 5 & 6", "value": "significantly lower"}, {"measurement": "necrosis width vs vehicle and dexamethasone", "setting": "[2]; Compound 2 Group 5 & 6", "value": "significantly lower"}, {"measurement": "reduction of necrosis width, of vehicle", "setting": "[2]; Compound 2 Group 6", "value": 96, "unit": "%"}, {"measurement": "Histopathology scores vs vehicle", "setting": "[2]; Compound 2 Groups 4-6", "value": "lower than the vehicle"}, {"measurement": "necrosis width vs vehicle", "setting": "[2]; Compound 2 Groups 4-6", "value": "lower than the vehicle"}, {"measurement": "small intestine gross score compared to vehicle", "setting": "[2]; Group 4 (50 mg/kg PO)", "value": "trend in lower small intestine gross score"}, {"measurement": "small intestine gross score compared to vehicle", "setting": "[2]; Groups 5-6 (200, 800 mg/kg PO)", "value": "significant reductions"}, {"measurement": "small intestine weight compared to vehicle", "setting": "[2]", "value": "significantly lower"}, {"measurement": "body weight change (prevention of weight loss)", "setting": "[2]", "value": "trended towards or had significant differences in preventing weight loss"}]}
{"compound": "CCCCCc1cc(O)c(C/C=C(\\C)CCC=C(C)C)c(OC)c1", "note": "[Compound 1, (E)-2-(3,7-dimethylocta-2,6-dien-1-yl)-3-methoxy-5-pentylphenol]", "values": [{"measurement": "GI50", "setting": "[1]; [8]", "value": 8.76, "unit": "µM"}, {"measurement": "GI50", "setting": "[1]; [4]", "value": 8.47, "unit": "µM"}, {"measurement": "GI50", "setting": "[1]; [5]", "value": 7.55, "unit": "µM"}, {"measurement": "GI50", "setting": "[1]; [6]", "value": 10.3, "unit": "µM"}, {"measurement": "GI50", "setting": "[1]; [7]", "value": "8.76 ± 1.38", "unit": "µM"}, {"measurement": "microsomal CLint at 1 µM", "setting": "[3]", "value": "< 2.89", "unit": "µL/min/mg"}, {"measurement": "half-life at 1 µM", "setting": "[3]", "value": "> 4", "unit": "h"}, {"measurement": "histopathology scores vs vehicle and dexamethasone", "setting": "[2]; [9]", "value": "significantly lower"}, {"measurement": "necrosis width vs vehicle and dexamethasone", "setting": "[2]; [9]", "value": "significantly lower"}, {"measurement": "Histopathology scores vs vehicle and positive control", "setting": "[2]; [10]", "value": "trended lower"}, {"measurement": "necrosis width vs vehicle and positive control", "setting": "[2]; [10]", "value": "trended lower"}, {"measurement": "small intestine gross score compared to vehicle", "setting": "[2]; Group 4 (50 mg/kg PO)", "value": "trend in lower small intestine gross score"}, {"measurement": "small intestine gross score compared to vehicle", "setting": "[2]; Groups 5-6 (200, 800 mg/kg PO)", "value": "significant reductions"}, {"measurement": "small intestine weight compared to vehicle", "setting": "[2]", "value": "significantly lower"}, {"measurement": "body weight change (prevention of weight loss)", "setting": "[2]", "value": "trended towards or had significant differences in preventing weight loss"}]}
{"compound": "CCCCCc1cc(O)c(C/C=C(\\C)CCC=C(C)C)c(O)c1", "note": "[CBG, cannabigerol]", "values": [{"measurement": "GI50", "setting": "[1]; [8]", "value": 39, "unit": "µM"}, {"measurement": "GI50", "setting": "[1]; [4]", "value": 39.5, "unit": "µM"}, {"measurement": "GI50", "setting": "[1]; [5]", "value": 39.4, "unit": "µM"}, {"measurement": "GI50", "setting": "[1]; [6]", "value": 38, "unit": "µM"}, {"measurement": "GI50", "setting": "[1]; [7]", "value": "40 ± 0.84", "unit": "µM"}, {"measurement": "microsomal CLint at 1 µM", "setting": "[3]", "value": "< 2.89", "unit": "µL/min/mg"}, {"measurement": "half-life at 1 µM", "setting": "[3]", "value": "> 4", "unit": "h"}]}
